{"source": "patent US8586603B2", "about": "“Aminotetraline derivatives” (priority 2009, dated 2013)", "key": {"[1]": {"system": "formalin-induced hind paw licking in CD-1 mice", "assay": "Animal pain test (formalin assay)", "format": "in vivo", "details": "for % Inhibition of hind paw licking time: vs vehicle", "method": "The formalin test is being widely accepted as a valid basic model of persistent clinical pain, and may indicate a compound's efficacy in neuropathic and/or inflammatory pain conditions.\nCompound 1 and a comparator (gabapentin 100 mg/kg) were administered to groups of 5 or 10 CD-1 (Crl.) derived male mice weighing 24±2 g. Test substances and vehicle (0.2% HPMC/0.9% NaCl) were each administered by intraperitoneal injection (gabapentin) or oral gavage (compound 1) 15 or 30 minutes before subplantar injection of formalin (0.02 ml, 2% solution). Reduction of the formalin-induced hind paw licking time recorded at 5-minute interval during the following 0- to 35-minute after formalin injection by 50 percent or more (≧50%) indicated significant analgesic activity. Also, statistical analysis was performed by using one-way ANOVA followed by Dunnett's test to compare the test compound-treated and vehicle control groups. Significance is considered at P<0.05 level. Acute toxic symptoms and autonomic effects were observed after the administration of test compounds."}, "[2]": {"assay": "Saturated solution in phosphate buffer pH 6.2", "format": "physicochemical", "method": "(§1) For the permeation experiments horizontal cells with an acceptor and donor volume of approx. 23 mL of phosphate buffer pH 6.2 were used. The donor cells contained saturated solutions of compound 1 (2 mg/mL) in phosphate buffer pH 6.2. The experiments were performed at a temperature of 32° C. and the acceptor and donor media were slowly stirred. For the study pig leg skin with thickness of 300-500 μm were used. The experiments were performed in triplicate (n=3) over a period of 48 hours. During this time period six samples at different time points (after 2, 4, 6, 8, 24 and 48 hours) were taken. After each individual incubation period the concentration of the test compound in the acceptor medium was analysed by HPLC at 275 nm, 20° C., flow rate 2.0 mL/min in acetonitrile/water/TFA."}, "[3]": {"assay": "Pig skin permeation from saturated solution", "format": "in vitro ADME", "details": "pig leg skin 300-500 μm, phosphate buffer pH 6.2, 32° C., 48 hours, mean of cells 1-3", "method": "The in vitro permeation of compound 1 through pig skin from saturated solution (f1) and from a patch (f2) was investigated.\nas §1\nEvaluation: The concentration of the test compound in the acceptor medium was calculated by using an external standard solution with known concentration. Then the concentration of test compound was correlated with the incubation time by linear regression. The flux rate [μg/cm^2/h] is equivalent to the slope of the linear equation."}, "[4]": {"biological_target": "porcine cortical pα2 adrenergic receptor", "assay": "Receptor binding assay, [3H]RX821002 competition, porcine cortical membranes", "details": "means of 2-8 individual experiments each done as triplicate"}, "[5]": {"biological_target": "T1, human dopamine receptor subtype hD3 (Homo sapiens, UniProt P35462)", "T1 construct": "expressed in transfected cells; host or cells: CHO", "T1 sequence (P35462 whole entry)": "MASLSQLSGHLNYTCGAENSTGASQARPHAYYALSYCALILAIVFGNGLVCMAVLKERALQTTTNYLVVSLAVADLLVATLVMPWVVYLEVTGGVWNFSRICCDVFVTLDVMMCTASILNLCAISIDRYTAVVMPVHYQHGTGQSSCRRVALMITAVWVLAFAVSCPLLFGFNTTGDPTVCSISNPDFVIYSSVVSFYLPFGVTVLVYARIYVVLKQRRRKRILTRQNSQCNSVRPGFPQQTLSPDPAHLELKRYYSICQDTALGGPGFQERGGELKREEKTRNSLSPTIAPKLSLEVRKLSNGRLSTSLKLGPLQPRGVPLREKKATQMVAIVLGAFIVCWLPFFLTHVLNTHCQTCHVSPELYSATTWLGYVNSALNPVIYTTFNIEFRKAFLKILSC", "assay": "Receptor binding assay, [3H]spiperone competition, CHO cell membranes", "method": "(§2) Receptor binding data were determined when performing competition binding assays with membrane preparations of cloned cells (stably transfected Chinese Hamster Ovary cells (CHO)) expressing the human receptors and the following radioligands: [^3H]spiperone at the human dopamine receptor subtypes hD2long, hD2short, D3, and hD4.4.\n(§3) Selectivity ratios were calculated by division of the Ki values of the various compounds at the respective receptors through the Ki values at the 5HT1a receptor."}, "[6]": {"biological_target": "T2, human dopamine receptor subtype hD2long (Homo sapiens, UniProt P14416)", "T2 construct": "expressed in transfected cells; host or cells: CHO", "T2 sequence (P14416 whole entry)": "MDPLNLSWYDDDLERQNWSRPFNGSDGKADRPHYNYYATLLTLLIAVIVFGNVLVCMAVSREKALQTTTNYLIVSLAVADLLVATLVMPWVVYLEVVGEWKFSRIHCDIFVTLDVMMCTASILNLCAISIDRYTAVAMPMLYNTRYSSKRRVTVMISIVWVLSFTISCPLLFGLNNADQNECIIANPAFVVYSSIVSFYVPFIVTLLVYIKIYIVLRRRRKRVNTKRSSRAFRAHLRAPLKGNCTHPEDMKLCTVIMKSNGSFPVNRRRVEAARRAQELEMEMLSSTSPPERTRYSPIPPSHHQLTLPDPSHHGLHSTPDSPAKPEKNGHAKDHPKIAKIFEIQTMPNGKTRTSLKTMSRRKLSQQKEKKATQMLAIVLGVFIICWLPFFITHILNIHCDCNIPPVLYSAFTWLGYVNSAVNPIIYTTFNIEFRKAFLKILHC", "assay": "Receptor binding assay, [3H]spiperone competition, CHO cell membranes", "method": "as §2, §3"}, "[7]": {"biological_target": "T3, human dopamine receptor subtype hD2short (Homo sapiens, UniProt P14416)", "T3 construct": "expressed in transfected cells; host or cells: CHO", "T3 sequence (P14416 1-414 isoform P14416-2)": "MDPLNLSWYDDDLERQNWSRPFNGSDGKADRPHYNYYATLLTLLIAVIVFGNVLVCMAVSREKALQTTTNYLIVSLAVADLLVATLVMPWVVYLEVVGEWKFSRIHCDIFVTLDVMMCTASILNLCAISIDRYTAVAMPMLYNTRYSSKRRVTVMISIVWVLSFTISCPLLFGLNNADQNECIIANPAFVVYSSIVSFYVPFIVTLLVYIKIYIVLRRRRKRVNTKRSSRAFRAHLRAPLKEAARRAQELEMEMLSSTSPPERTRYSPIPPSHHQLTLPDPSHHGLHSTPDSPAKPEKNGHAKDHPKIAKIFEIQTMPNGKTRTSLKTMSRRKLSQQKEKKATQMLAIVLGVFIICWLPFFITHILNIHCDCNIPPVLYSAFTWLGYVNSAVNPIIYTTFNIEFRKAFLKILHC", "assay": "Receptor binding assay, [3H]spiperone competition, CHO cell membranes", "method": "as §2, §3"}, "[8]": {"biological_target": "T4, porcine striatal pD1 dopamine receptor (Sus scrofa, UniProt P50130)", "T4 construct": "membrane homogenates prepared from porcine striatal or cortical tissue; from tissue; host or cells: porcine striatum", "T4 sequence (P50130 whole entry)": "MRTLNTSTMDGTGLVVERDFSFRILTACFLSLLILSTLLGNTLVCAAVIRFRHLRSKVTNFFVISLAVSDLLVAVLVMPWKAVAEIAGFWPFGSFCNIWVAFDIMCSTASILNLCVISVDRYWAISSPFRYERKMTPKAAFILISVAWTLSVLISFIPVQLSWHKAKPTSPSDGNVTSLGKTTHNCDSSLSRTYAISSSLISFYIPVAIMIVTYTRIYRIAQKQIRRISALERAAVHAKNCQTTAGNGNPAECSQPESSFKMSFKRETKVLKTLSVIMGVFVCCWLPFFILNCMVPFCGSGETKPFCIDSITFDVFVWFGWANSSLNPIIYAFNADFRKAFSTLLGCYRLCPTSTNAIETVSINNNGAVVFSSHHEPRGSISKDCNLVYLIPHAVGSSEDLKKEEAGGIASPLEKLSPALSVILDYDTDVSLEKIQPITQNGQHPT", "assay": "Receptor binding assay, [3H]SCH 23390 competition, porcine striatal membranes"}, "[9]": {"biological_target": "T5, human 5-HT1a receptor (Homo sapiens, UniProt P08908)", "T5 construct": "expressed in transfected cells", "T5 sequence (P08908 1-422)": "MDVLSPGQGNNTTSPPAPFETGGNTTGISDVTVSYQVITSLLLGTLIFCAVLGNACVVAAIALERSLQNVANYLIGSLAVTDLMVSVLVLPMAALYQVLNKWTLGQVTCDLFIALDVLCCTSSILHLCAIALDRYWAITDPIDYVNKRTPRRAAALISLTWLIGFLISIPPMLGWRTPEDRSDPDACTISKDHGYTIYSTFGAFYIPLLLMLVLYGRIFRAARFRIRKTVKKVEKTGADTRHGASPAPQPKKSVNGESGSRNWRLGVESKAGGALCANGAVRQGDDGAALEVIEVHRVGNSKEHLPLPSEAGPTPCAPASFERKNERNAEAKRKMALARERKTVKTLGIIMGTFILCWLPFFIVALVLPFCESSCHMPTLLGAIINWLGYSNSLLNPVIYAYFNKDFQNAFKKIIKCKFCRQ", "assay": "[35S]GTPγS functional assay", "format": "biochemical", "method": "Specific binding of [^35S]GTPγS is stimulated by activation of the stably expressed human 5-HT1a receptor in a dose-dependent way by agonists for this GPCR and is determined by measuring the radioactive label of the membrane. Non-linear regression analysis of the resulting dose-response curves yields the EC50 value in [nM] representing the half maximal concentration which is necessary to activate the receptor completely."}, "[10]": {"biological_target": "T6, porcine cortical pα1 adrenergic receptor", "T6 construct": "Ki pα1; other: means of 2-8 individual experiments each done as triplicate", "assay": "Receptor binding assay, [3H]prazosin competition, porcine cortical membranes", "details": "means of 2-8 individual experiments each done as triplicate"}, "[11]": {"system": "porcine cortical pα1 adrenergic receptor", "assay": "Receptor binding assay, [3H]prazosin competition, porcine cortical membranes", "details": "vs p5-HT1a"}, "[12]": {"details": "5 mg/kg oral, interval 0-5 minutes"}, "[13]": {"details": "5 mg/kg oral, interval 5-10 minutes"}, "[14]": {"details": "5 mg/kg oral, interval 10-15 minutes"}, "[15]": {"details": "5 mg/kg oral, interval 15-20 minutes"}, "[16]": {"details": "5 mg/kg oral, interval 20-25 minutes"}, "[17]": {"details": "5 mg/kg oral, interval 25-30 minutes"}, "[18]": {"details": "5 mg/kg oral, interval 30-35 minutes"}, "[19]": {"details": "10 mg/kg oral, interval 0-5 minutes"}, "[20]": {"details": "10 mg/kg oral, interval 5-10 minutes"}, "[21]": {"details": "10 mg/kg oral, interval 20-25 minutes"}, "[22]": {"details": "10 mg/kg oral, interval 25-30 minutes"}, "[23]": {"details": "10 mg/kg oral, interval 30-35 minutes"}, "[24]": {"details": "means of 2-8 individual experiments each done as triplicate"}}, "note": "Several values for one entry are separate records, joined by “and”; a condition that tells them apart may be missing. Equal values may be shown once.", "data": [{"compound": "CCCN(CCc1cccs1)C1CCc2cccc(O)c2C1", "note": "(centres unmarked) [Compound 1, N-(8-Hydroxytetralin-2-yl)-N-propyl-N-[2-(2-thienyl)ethyl]amine]", "values": [{"measurement": "analgesic effect", "setting": "[1]; 1 mg/kg oral administration", "value": "no analgesic effect"}, {"measurement": "analgesic effect", "setting": "[1]; 3 mg/kg oral administration", "value": "some effect"}, {"measurement": "Hind Paw Licking Times", "setting": "[1]; [12]", "value": "63.4 ± 7.2", "unit": "s"}, {"measurement": "% Inhibition of hind paw licking time", "setting": "[1]; [12]", "value": "(18%)"}, {"measurement": "Hind Paw Licking Times", "setting": "[1]; [13]", "value": "10.2 ± 3.9", "unit": "s"}, {"measurement": "% Inhibition of hind paw licking time", "setting": "[1]; [13]", "value": "(0%)"}, {"measurement": "Hind Paw Licking Times", "setting": "[1]; [14]", "value": "25.1 ± 11.6", "unit": "s"}, {"measurement": "% Inhibition of hind paw licking time", "setting": "[1]; [14]", "value": "(54%)"}, {"measurement": "Hind Paw Licking Times", "setting": "[1]; [15]", "value": "56.7 ± 18", "unit": "s"}, {"measurement": "% Inhibition of hind paw licking time", "setting": "[1]; [15]", "value": "(44%)"}, {"measurement": "Hind Paw Licking Times", "setting": "[1]; [16]", "value": "54.7 ± 9.4", "unit": "s"}, {"measurement": "% Inhibition of hind paw licking time", "setting": "[1]; [16]", "value": "(12%)"}, {"measurement": "Hind Paw Licking Times", "setting": "[1]; [17]", "value": "54.7 ± 15.1", "unit": "s"}, {"measurement": "% Inhibition of hind paw licking time", "setting": "[1]; [17]", "value": "(0%)"}, {"measurement": "Hind Paw Licking Times", "setting": "[1]; [18]", "value": "24.7 ± 9.8", "unit": "s"}, {"measurement": "% Inhibition of hind paw licking time", "setting": "[1]; [18]", "value": "(0%)"}, {"measurement": "analgesic effect", "setting": "[1]; 10 mg/kg oral administration, 10-20 minutes period", "value": "significant analgesic effect"}, {"measurement": "Hind Paw Licking Times", "setting": "[1]; [19]", "value": "64.3 ± 7.3", "unit": "s"}, {"measurement": "% Inhibition of hind paw licking time", "setting": "[1]; [19]", "value": "(16%)"}, {"measurement": "Hind Paw Licking Times", "setting": "[1]; [20]", "value": "0 ± 0", "unit": "s"}, {"measurement": "% Inhibition of hind paw licking time", "setting": "[1]; [20]", "value": "(100%)"}, {"measurement": "% Inhibition of hind paw licking time", "setting": "[1]; 10 mg/kg oral, interval 10-15 minutes", "value": "(96%)"}, {"measurement": "% Inhibition of hind paw licking time", "setting": "[1]; 10 mg/kg oral, interval 15-20 minutes", "value": "(69%)"}, {"measurement": "Hind Paw Licking Times", "setting": "[1]; [21]", "value": "37.5 ± 13.6", "unit": "s"}, {"measurement": "% Inhibition of hind paw licking time", "setting": "[1]; [21]", "value": "(40%)"}, {"measurement": "Hind Paw Licking Times", "setting": "[1]; [22]", "value": "29.9 ± 12.7", "unit": "s"}, {"measurement": "% Inhibition of hind paw licking time", "setting": "[1]; [22]", "value": "(0%)"}, {"measurement": "Hind Paw Licking Times", "setting": "[1]; [23]", "value": "12.8 ± 8.8", "unit": "s"}, {"measurement": "% Inhibition of hind paw licking time", "setting": "[1]; [23]", "value": "(10%)"}, {"measurement": "activity in an oral animal model of pain", "setting": "[1]; oral", "value": "active"}, {"measurement": "melting point", "value": 99, "unit": "°C"}, {"measurement": "concentration of saturated solution", "setting": "[2]", "value": 2000, "unit": "µg/mL"}, {"measurement": "average flux rate from saturated solution", "setting": "[3]", "value": 4.0, "unit": "μg/cm^2/h"}, {"measurement": "Ki", "setting": "[4]", "value": 68, "unit": "nM"}, {"measurement": "Ki", "setting": "[5]; [24]", "value": 190, "unit": "nM"}, {"measurement": "selectivity ratio hD3", "setting": "[5]; vs p5-HT1a", "value": 260}, {"measurement": "Ki", "setting": "[6]; [24]", "value": 260, "unit": "nM"}, {"measurement": "selectivity ratio hD2long", "setting": "[6]; vs p5-HT1a", "value": 360}, {"measurement": "Ki", "setting": "[7]; [24]", "value": 260, "unit": "nM"}, {"measurement": "selectivity ratio hD2short", "setting": "[7]; vs p5-HT1a", "value": 360}, {"measurement": "Ki", "setting": "[8]; [24]", "value": 9400, "unit": "nM"}, {"measurement": "selectivity ratio pD1", "setting": "[8]; vs p5-HT1a", "value": "13 000"}, {"measurement": "agonist activity at the human 5-HT1a receptor", "setting": "[9]; in words", "value": "full agonist activity"}, {"measurement": "EC50", "setting": "[9]; mean values of 2-8 individual experiments", "value": "0.65 to 1.9 nM and 1.9 nM"}, {"measurement": "Emax", "setting": "[9]; read-out: intrinsic activity [% rel. to serotonin]", "value": 103, "unit": "%"}, {"measurement": "Ki", "setting": "[10]", "value": 170, "unit": "nM"}, {"measurement": "selectivity ratio pα1", "setting": "[11]", "value": 230}]}]}
